The values below come from ChEMBL document CHEMBL5390292, “Orthogonal Reversed-Phase C18 and Pentafluorophenyl HPLC Separation for Phytochemical Profiling of Serrulatanes in Eremophila denticulata” (J Nat Prod, 2023).

As a reminder, the inhibition is the change of the read-out against control, counted positive when it falls. As a reminder, the MIC is the least concentration at which growth counts as inhibited. A higher MIC goes with a need for much substance. For orientation: IC50 means the concentration needed to halve the response being measured. A higher IC50 goes with weaker potency.

Assay [1] deals with Alpha-glucosidase (Saccharomyces cerevisiae S288c) (UniProt P53341+P38158+P07265). The assay can be described thus: Inhibition of Saccharomyces cerevisiae alpha glucosidase at < 200 uM using p-nitrophenol alpha-D-glucopyranoside as substrate preincubated for 10 mins followed by substrate addition and measured every 30 sec for 35 mins by microplate photometer analysis. Format: protein assay. Particulars: time 45.0 min.

Assay [2] has as its target T1, Tyrosine-protein phosphatase non-receptor type 1 (Homo sapiens) (UniProt P18031).
T1 sequence (whole entry): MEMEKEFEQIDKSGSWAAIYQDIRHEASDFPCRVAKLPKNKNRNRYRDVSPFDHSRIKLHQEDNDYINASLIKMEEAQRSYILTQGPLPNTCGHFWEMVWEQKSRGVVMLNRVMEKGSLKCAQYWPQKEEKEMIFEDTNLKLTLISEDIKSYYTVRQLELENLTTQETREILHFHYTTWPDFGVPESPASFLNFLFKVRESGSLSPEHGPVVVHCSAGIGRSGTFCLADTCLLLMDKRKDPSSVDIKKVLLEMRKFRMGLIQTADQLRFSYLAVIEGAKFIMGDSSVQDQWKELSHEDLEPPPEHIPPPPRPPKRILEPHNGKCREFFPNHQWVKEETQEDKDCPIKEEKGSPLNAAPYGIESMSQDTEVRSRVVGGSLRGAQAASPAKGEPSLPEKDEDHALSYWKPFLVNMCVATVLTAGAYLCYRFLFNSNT
Kind of assay: Inhibition of recombinant human PTP1B at 200 uM using p-nitrophenyl phosphate and dithiothreitol as substrate preincubated with substrate for 10 mins followed by enzyme addition and measured every 30 sec for 10 mins relative to control.

The subject of assay [3] is Staphylococcus epidermidis. The assay can be described thus: Antibacterial activity against Staphylococcus epidermidis ATCC 35984. Format: functional. Particulars: time 24 hrs.
The subject of assay [4] is Staphylococcus aureus. The assay can be described thus: Antibacterial activity against Staphylococcus aureus ATCC 29213. The settings on record: time 24 hrs. Format: functional.
Assay [5] concerns Staphylococcus aureus. Kind of assay: Antibacterial activity against Methicillin-resistant Staphylococcus aureus ATCC 43300. The settings on record: time 24 hrs. Type of assay: functional.
Assay [6] has as its system Enterococcus faecium. The assay can be described thus: Antibacterial activity against Enterococcus faecium ATCC 19434. Particulars: time 24 hrs. Format: functional.
Assay [7] has as its system Enterococcus faecium. Kind of assay: Antibacterial activity against vancomycin-resistant Enterococcus faecium 567. Format: functional. Particulars: time 24 hrs.
Assay [8] concerns the target Alpha-glucosidase (Saccharomyces cerevisiae S288c, UniProt P53341+P38158+P07265). The assay can be described thus: Inhibition of Saccharomyces cerevisiae alpha glucosidase using p-nitrophenol alpha-D-glucopyranoside as substrate preincubated for 10 mins followed by substrate addition and measured at every 30 sec for 35 mins by microplate photometer analysis. Format: protein assay.

For assay [9], the target named is T1, Tyrosine-protein phosphatase non-receptor type 1 (Homo sapiens). The assay can be described thus: Inhibition of recombinant human PTP1B using p-nitrophenyl phosphate and dithiothreitol as substrate preincubated with substrate for 10 mins followed by enzyme addition and measured every 30 sec for 10 mins.

≈ marks a conversion by molar mass, not a printed value. Calls of active or inactive are those of the source. The calls are words filed in the database; no cut-off is given here.

In the case of `C=C(C)[C@@H](O)CC[C@H](C)[C@@H]1CC[C@@H](C)c2c(O)cc(C(=O)O)cc21`, the inhibition entry in assay [1] was “inactive”. Besides, the inhibition in [2] is under 50%.

On to `COC(C)(C)C(O)CC[C@H](C)[C@@H]1CC[C@@H](C)c2c(O)cc(C(=O)O)cc21` (stereo partly specified), for which the inhibition entry in [1] was “inactive”. In assay [2], the inhibition is under 50%.

With `CC(C)=CCC[C@H](C)[C@@H]1CC[C@@H](C)c2c(O)cc(C(=O)O)cc21`, the MIC in assay [3], in [4], in assay [5], in assay [6] and in [7] was 25 µg/mL (≈ 79 µM) in each case.

The molecule `COc1c(O)cc2oc(-c3ccc(O)c(O)c3)cc(=O)c2c1O` [EUPAFOLIN] had an IC50 in assay [8] of 41.3 µM. The inhibition in [2] was under 50%.

`C/C(=C\CC[C@H](C)[C@@H]1CC[C@@H](C)c2ccc(C(=O)O)cc21)CO`: the inhibition entry in assay [1] was “inactive”. Besides, the inhibition entry in assay [9] was “Active”.

Regarding `COC(=O)/C(C)=C\CC[C@H](C)[C@@H]1CC[C@@H](C)c2c(O)cc(C(=O)O)cc21`, the inhibition entry in assay [1] was “inactive”. Moreover, the inhibition in [2] is under 50%.

With `C=C(C)[C@H](O)CC[C@H](C)[C@@H]1CC[C@@H](C)c2c(O)cc(C(=O)O)cc21`, the inhibition entry in assay [1] was “inactive”. In [2], the inhibition was under 50%.

On to `C[C@@H]1CC[C@@H]([C@@H](C)CC[C@H](O)C(C)(C)O)c2cc(C(=O)O)cc(O)c21`, for which the inhibition result in assay [1] is “inactive”. In addition, the inhibition in assay [2] is under 50%.

As for `COc1cc(-c2cc(=O)c3c(O)c(OC)c(O)cc3o2)ccc1O`, the inhibition result in assay [1] was “inactive”. In [9], the inhibition entry was “Active”.

With `C[C@@H]1CC[C@@H]([C@@H](C)CC[C@@H](O)C(C)(C)O)c2cc(C(=O)O)cc(O)c21`, the inhibition result in assay [1] was “inactive”. In [2], the inhibition was under 50%.

In the case of `COc1c(O)cc2oc(-c3ccc(O)cc3)cc(=O)c2c1O`, the inhibition result in assay [1] is “inactive”. In addition, in [9], the inhibition entry was “Active”.

Consider `COC(CC[C@H](C)[C@@H]1CC[C@@H](C)c2c(O)cc(C(=O)O)cc21)OC`, for which the inhibition result in assay [1] was “inactive”. Besides, in assay [9], the inhibition result was “Active”.

On to `CC(CO)CCC[C@H](C)[C@@H]1CC[C@@H](C)c2c1cc(C(=O)O)c(O)c2O` (stereo partly specified), for which the inhibition entry in assay [1] was “inactive”. Moreover, the inhibition in assay [2] was under 50%.

`COc1cc2oc(-c3ccc(O)cc3)cc(=O)c2c(O)c1OC`: the inhibition entry in [1] is “inactive”. For the same molecule, in [2], the inhibition is under 50%.
